The source of these data is EP0835125B1, “CD4-DERIVED PEPTIDES THAT INHIBIT IMMUNE RESPONSES” (THOMAS JEFFERSON UNIVERSITY, priority 1995, dated 2004).

The test system of assay [1] is responder cell alloreactive proliferation (human T cell). The following applies: for inhibition (suppressive effect on human T cell activation): 3 h, 100 µM; for activity in human MLR / human T cell proliferation in vitro, in words: in b95 the words describe the cyclic peptide relative to the linear peptides KNSNQI, KNSNQ, NSNQI (linear ones less active).
Method: For this assay, fresh peripheral blood lymphocytes from two different donors are co-cultured; the cells of one donor were irradiated and served as stimulators. Proliferation of these activated T cells was measured by measuring the incorporation of ^3H-thymidine at various timepoints.
For human MLR, 50 ml of whole blood was collected into anti-coagulant (ACD, acid citrate dextrose) containing tubes. In 50 ml conical tubes, 20 ml of blood was layered over 20 ml Ficoll 1077 (Sigma Chemical Co., St. Louis, MO) and centrifuged at 2000 rpm for 35-40 min at 15-20°C. Buffy coats and serum were collected in 3x volume of PBS centrifuged at 1500 rpm for 15 min at 15-20°C. Supernatants were discarded, cells were washed 2x in 50 ml PBS and resuspended in RPMI supplemented with 10% heat-inactivated (56°, 30 min) human serum (cat# H4522, Sigma), 50 IU/ml pen/strep and 2mM (1% of 200 mM stock) L-glutamine (both from BioWhitaker). Lymphocyte yield varied between 5-8x10^7.
In a 96-well flat bottom plate 1 x 10^5 responders were plated with 2 x 10^5 irradiated (3000 rad) simulators/well (added in 100 µl each), and incubated for 6, 7 or 8 days at 37°C, 7% CO2. Peptide analogues were added to quadruplicate wells, at a concentration of 100 µM (5 mg/ml stock) or titrations thereof, immediately after cells were plated. For radiolabelling, the cells were incubated with 1 µCi [^3H]TdR/well (25 µl) (diluted from 1mCi/ml stock, Amersham) for the final 6 hours of incubation. Cells were harvested using a fiberfilter cell harvester (e.g., Harvester 96, Tomtec) and counted in a Beta Counter of Beta plate reader (1205 BS Betaplate Liquid Scintillation Counter, Wallac) with scintillation fluid.
For the next assay, the system named is EAE. Put plainly: EAE inhibition in vivo, SJL EAE model, daily severity score on 0-5 scale. The arrangement: species or system mice. The following applies: for effect on EAE in mice, in words: b73: 0.5 mg dose i.v. 12 days after immunization. As to the method:
The C-C' loop peptides were initially tested for efficacy in the SJL EAE model. In untreated animals, a high incidence of disease was observed 15-22 days after two s.c. inoculations of 1 mg of crude murine spinal cord homogenate in complete Freund's adjuvant. The severity of the disease was scored daily using the established 0-5 scale that describes the level of ascending paresis, Korngold, R., et al., 1986, Immunogenetics 24:309-315. The level of the mean EAE severity grade of mice for the untreated control group reached a maximum of 2.0. […] Also shown are the results of groups of mice that received the rD-mPGPtide, a mimic of residues 86-104 of murine homolog of CD4, which was described in Jameson et al. 1994, Nature 368:744-746.

In assay [2] the test system is interaction of CD4 and MHC, class II. Put plainly: Rosetting of Raji cells and CD4-transiently transfected COS-7 cells, microscopic count. The assay is classed as cell-based, human. The conditions noted are these: 200 µM, three independent assays. How it is done:
The cyclic peptide CNSNQIC (SEQ ID NO:45) at 200 µM was tested to determine if the peptide inhibited the interaction of CD4 and MHC, class II. The test was performed by rosetting Raji cells and CD4-transiently transfected COS-7 cells. See: Moebius, U. et al., 1992, Proc. Natl. Acad. Sci. 89:12008-12; Moebius, U., et al., 1993, Proc. Natl. Acad. Sci. 90:8259-63.
The sequence of human CD4 cDNA is given in Maddon, P.J. et al., 1985, CELL 42:93-104, which sequence is hereby incorporated by reference. […]
For transfection of COS-7 cells, a CD4-expression plasmid T4-pcDNA3, was constructed by subcloning the 3.0 Kb Eco R1 fragment of T4-pMV7 into the EcoRI site of the mammalian expression vector pcDNA3 (INVITROGEN). […] Rosette formation between Raji cells and transfected COS-7 cells was scored microscopically at 100-fold magnification. The number of rosette containing more than five Raji cells was counted in 10 random optical fields in each individual well; 300-400 rosettes per well were counted as the positive control for rosette formation without any inhibition in the absence of any chemicals. The inhibition activity for rosette formation for each chemical was determined by the ratio of the number of rosettes obtained in the presence of this chemical to the number of rosettes in the positive control. […]

Assay [3] shares this test system. The assay can be described thus: Rosetting of Cr51-labelled Raji cells to stably T4-pMV7-transfected COS-1 cells. The conditions noted are these: 200 µM. The class given is cell-based, human. The source says:
In a second construct, the T4-pMV7 plasmid, which contains a Tn5 neo selectable marker, was introduced into Cos-1 cells by electroporation. Stably transfected cells were isolated by selection with G-418 and the resultant transformants expressed CD4.
Raji cells were labelled with Cr^51 and rosetted to the stably T4-pMV7-transfected COS-1 cells.

Assay [4] has as its target MHC, class II, gene products on Raji cells (human). The assay can be described thus: rosette assay, Cr51-labelled Raji cells (MHC class II) on stably T4-pMV7-transfected COS-1 cells (CD4), peptide at 200 uM.
For assay [5] the target is unchanged. The assay can be described thus: rosette assay, Raji cells (MHC class II) on CD4-transiently transfected COS-7 cells, peptide at 200 uM, blocks CD4/MHC class II interaction; independent assay 1 of 3.
Assay [6] shares this target. Put plainly: rosette assay, Raji cells (MHC class II) on CD4-transiently transfected COS-7 cells, peptide at 200 uM, blocks CD4/MHC class II interaction; independent assay 2 of 3.
Assay [7] has the same target. The assay can be described thus: rosette assay, Raji cells (MHC class II) on CD4-transiently transfected COS-7 cells, peptide at 200 uM, blocks CD4/MHC class II interaction; independent assay 3 of 3.
The mark [8] stands for this setting: listed as CNSNQIC (SEQ ID NO:44).

“And” between values parts separate entries of the source, which are not always exact repeats. Equal values may be shown once. Read-outs that look alike come from different tables or passages of the source. Bridge positions count the residues as written; N and C are the ends. Peptide text beside a SMILES is read from it.

For the molecule `CC[C@H](C)[C@H](NC(=O)[C@H](CCC(N)=O)NC(=O)[C@H](CC(N)=O)NC(=O)[C@H](CO)NC(=O)[C@H](CC(N)=O)NC(=O)[C@@H](N)CS)C(=O)N[C@@H](CS)C(=O)O` [linear CNSNQIC, CNSNQIC] (H-CNSNQIC-OH), the “inhibition (suppressive effect on human T cell activation)” value in assay [1] came to 32.2%.
In the case of `CC[C@H](C)[C@@H]1NC(=O)[C@H](CCC(N)=O)NC(=O)[C@H](CC(N)=O)NC(=O)[C@H](CO)NC(=O)[C@H](CC(N)=O)NC(=O)[C@@H](N)CSSC[C@@H](C(=O)O)NC1=O` [CNSNQIC (SEQ ID NO:45), CNSNQIC] (H-CNSNQIC-OH; disulfide 1-7 (inferred); N-terminus and C-terminus assumed), the “maximum severity level (mean EAE severity grade)” value in the assay on EAE (0.5 mg i.v. on day 12, 0-5 scale, untreated control group maximum 2.0) is on record as 1.0. In addition, the “effect on EAE in mice, in words” value in the assay with EAE was “effective to ameliorate EAE”; with EAE (setting [8]), “inhibitor of EAE in mice”. Moreover, the “inhibition of the rosettes” value in assay [2] is 57% and 63% and 51%. The inhibition of rosetting result in assay [3] was “greater than 75%”. Further, the “inhibition (suppressive effect on human T cell activation)” value in assay [1] was 54.4%. Besides, the “activity in human MLR / human T cell proliferation in vitro, in words” value is given as “significantly higher activity than the linear peptides” in assay [1] and “highly potent inhibitor of human T cell proliferation” in assay [1] (setting [8]).
In turn, cyclic peptide CNSNQIC (SEQ ID NO:45) had a percent inhibition of rosetting in assay [4] of over 75%. In addition, the percent inhibition of rosettes was determined as 57% in assay [5], 63% in assay [6] and 51% in assay [7].
